Reference: ChEMBL document CHEMBL5113460, “Discovery of dual inhibitors of topoisomerase I and Cyclooxygenase-2 for colon cancer therapy” (Eur J Med Chem, 2022)
Values after ≈ are worked out from the molar mass of the structure shown. Active and inactive are the calls of the source. No cut-off for these calls is given here.

Legend:
[1] = tested on: HT-29; experiment: Induction of apoptosis in human HT-29 cells assessed as viable cells at 2 uM incubated for 24 hr by Annexin-V-FITC/PI staining based flow cytometry (Rvb= 83.5%); assay type: functional; settings: read-out: Activity
[2] = tested on: HT-29; experiment: Inhibition of NF-kappaB signalling pathway in human HT-29 cells assessed as decrease in phosphorylated IkappaB level at 2 to 8 uM incubated for 24 hrs by Western blot analysis; assay type: cell-based; settings: dose 2-8 µM
[3] = tested on: HT-29; experiment: Induction of apoptosis in human HT-29 cells assessed as early apoptotic cells at 8 uM incubated for 24 hr by Annexin-V-FITC/PI staining based flow cytometry (Rvb=6.25%); assay type: functional
[4] = tested on: HT-29; experiment: Inhibition of NF-kappaB signalling pathway in human HT-29 cells assessed as decrease in phosphorylated NF-kappaB p65 level at 2 to 8 uM incubated for 24 hrs by Western blot analysis; assay type: cell-based; settings: dose 2-8 µM
[5] = tested on: RKO; experiment: Induction of apoptosis in human RKO cells assessed as increase in cleaved caspase-3 protein level at 3 to 9 uM incubated for 24 hrs by western blot analysis; assay type: functional, cell-based; settings: dose 3-9 µM
[6] = tested on: HT-29; experiment: Induction of apoptosis in human HT-29 cells assessed as reduction in mitochondrial membrane potential at 2 to 8 uM by TMRE staining based flow cytometry; assay type: functional, cell-based; settings: dose 2-8 µM
[7] = AUC (0-t) in Sprague-Dawley rat at 100 mg/kg, po and measured upto 24 hrs by LC-MS analysis; assay type: ADME, organism-based; design: dose 100 mg/kg, time < 24 hrs, route po; settings: in vivo
[8] = tested on: HT-29; experiment: Induction of apoptosis in human HT-29 cells assessed as necrotic cells at 4 uM incubated for 24 hr by Annexin-V-FITC/PI staining based flow cytometry (Rvb=1.67%); assay type: functional
[9] = Water solubility of compound by HPLC analysis; assay type: physicochemical
[10] = tested on: RKO; experiment: Induction of cell cycle arrest in human RKO cells assessed as ratio of G1/G0 phase at 2 to 8 uM incubated for 24 hrs by flow cytometry (Rvb= 37.57%); assay type: functional; settings: dose 2-8 µM
[11] = Tmax in Sprague-Dawley rat at 100 mg/kg, po and measured upto 24 hrs by LC-MS analysis; assay type: ADME, organism-based; settings: in vivo
[12] = tested on: RKO; experiment: Induction of apoptosis in human RKO cells assessed as necrotic cells at 3 uM incubated for 24 hr by Annexin-V-FITC/PI staining based flow cytometry (Rvb= 0.30%); assay type: functional
[13] = tested on: HT-29; experiment: Induction of apoptosis in human HT-29 cells assessed as late apoptotic cells at 8 uM incubated for 24 hr by Annexin-V-FITC/PI staining based flow cytometry (Rvb=8.60%); assay type: functional
[14] = Half life in Sprague-Dawley rat at 100 mg/kg, po and measured upto 24 hrs by LC-MS analysis; assay type: ADME, organism-based; settings: in vivo
[15] = tested on: HT-29; experiment: Antitumor activity against human HT-29 cells xenografted in BALB/c mouse assessed as reduction of tumor weight at 15 mg/kg, ip bid and measured after 14 days; assay type: functional, organism-based; settings: time 14.0 day
[16] = tested on: RKO; experiment: Induction of apoptosis in human RKO cells assessed as early apoptotic cells at 9 uM incubated for 24 hr by Annexin-V-FITC/PI staining based flow cytometry (Rvb= 7.27%); assay type: functional
[17] = tested on: HT-29; experiment: Antitumor activity against human HT-29 cells xenografted in BALB/c mouse assessed as reduction of tumor weight at 30 mg/kg, ip bid and measured after 14 days; assay type: functional, organism-based; settings: time 14.0 day
[18] = tested on: HT-29; experiment: Induction of apoptosis in human HT-29 cells assessed as necrotic cells at 8 uM incubated for 24 hr by Annexin-V-FITC/PI staining based flow cytometry (Rvb=1.67%); assay type: functional
[19] = tested on: HT-29; experiment: Antitumor activity against human HT-29 cells xenografted in BALB/c mouse assessed as inhibition of tumor cell proliferation at 15 mg/kg, ip bid for 14 days by Ki67 staining based immunohistochemical analysis (Rvb= 16.61+/-1.05%); assay type: functional; design: scale not given: the % may be the effect or the level left; settings: time 14 day
[20] = tested on: HT-29; experiment: Induction of apoptosis in human HT-29 cells assessed as increase in cytochrome c protein level at 2 to 8 uM incubated for 24 hrs by western blot analysis; assay type: functional, cell-based; settings: dose 2-8 µM
[21] = tested on: HCT-116; experiment: Antitumor activity against human HCT-116 cells assessed as inhibition of cell proliferation incubated for 72 hrs by MTT assay; assay type: functional, cell-based; settings: HCT-116, 72 h
[22] = tested on: HT-29; experiment: Induction of apoptosis in human HT-29 cells assessed as viable cells at 8 uM incubated for 24 hr by Annexin-V-FITC/PI staining based flow cytometry (Rvb= 83.5%); assay type: functional; settings: read-out: Activity
[23] = tested on: HT-29; experiment: Induction of apoptosis in human HT-29 cells assessed as increase in cleaved caspase-3 protein level at 2 to 8 uM incubated for 24 hrs by western blot analysis; assay type: functional, cell-based; settings: dose 2-8 µM
[24] = tested on: HT-29; experiment: Induction of apoptosis in human HT-29 cells assessed as increase in cleaved caspase-9 protein level at 2 to 8 uM incubated for 24 hrs by western blot analysis; assay type: functional, cell-based; settings: dose 2-8 µM
[25] = tested on: RKO; experiment: Antiproliferative activity against human RKO cells assessed as inhibition of cell colonies at 0.37 to 1.5 uM incubated for 7 days by crystal violet staining based microscopic analysis; assay type: functional; settings: dose 0.37-1.5 µM, time 7.0 day
[26] = tested on: RKO; experiment: Induction of apoptosis in human RKO cells assessed as necrotic cells at 9 uM incubated for 24 hr by Annexin-V-FITC/PI staining based flow cytometry (Rvb= 0.30%); assay type: functional
[27] = tested on: RKO; experiment: Induction of apoptosis in human RKO cells assessed as increase in cleaved caspase-9 protein level at 3 to 9 uM incubated for 24 hrs by western blot analysis; assay type: functional, cell-based; settings: dose 3-9 µM
[28] = Tmax in Sprague-Dawley rat at 30 mg/kg, po and measured upto 12 hrs by LC-MS analysis; assay type: ADME, organism-based; settings: in vivo
[29] = tested on: HT-29; experiment: Antitumor activity against human HT-29 cells xenografted in BALB/c mouse assessed as inhibition of tumor microvessel density by measuring CD31-index at 15 mg/kg, ip bid for 14 days by immunohistochemical analysis; assay type: functional; settings: time 14 day
[30] = tested on: HT-29; experiment: Antiproliferative activity against human HT-29 cells assessed as inhibition of cell colonies at 0.25 to 1 uM incubated for 7 days by crystal violet staining based microscopic analysis; assay type: functional; settings: dose 0.25-1 µM, time 7.0 day
[31] = tested on: RKO; experiment: Induction of apoptosis in human RKO cells assessed as increase in intracellular ROS level at 3 to 9 uM for 24 hrs by DCFH-DA staining-based flow cytometric analysis; assay type: functional, cell-based; settings: dose 3-9 µM
[32] = tested on: RKO; experiment: Induction of apoptosis in human RKO cells assessed as viable cells at 3 uM incubated for 24 hr by Annexin-V-FITC/PI staining based flow cytometry (Rvb= 87.9%); assay type: functional; settings: read-out: Activity
[33] = tested on: HT-29; experiment: Antitumor activity against human HT-29 cells xenografted in BALB/c mouse assessed as inhibition of tumor cell proliferation at 30 mg/kg, ip bid for 14 days by Ki67 staining based immunohistochemical analysis (Rvb= 16.61+/-1.05%); assay type: functional; design: scale not given: the % may be the effect or the level left; settings: time 14 day
[34] = tested on: RKO; experiment: Induction of apoptosis in human RKO cells assessed as late apoptotic cells at 9 uM incubated for 24 hr by Annexin-V-FITC/PI staining based flow cytometry (Rvb= 4.49%); assay type: functional
[35] = tested on: RKO; experiment: Induction of apoptosis in human RKO cells assessed as early apoptotic cells at 6 uM incubated for 24 hr by Annexin-V-FITC/PI staining based flow cytometry (Rvb= 7.27%); assay type: functional
[36] = tested on: HT-29; experiment: Induction of apoptosis in human HT-29 cells assessed as decrease in Bcl-2 protein level at 2 to 8 uM incubated for 24 hrs by western blot analysis; assay type: functional, cell-based; settings: dose 2-8 µM

SMILES: Cc1c(Cl)cccc1Nc1ccccc1C(=O)Nc1ccc(N2CCNCC2)cc1
- viability at 2 µM [1]: 82.6%
- inhibition [2]: Active
- Activity [3]: 3.96%
- inhibition [4]: Active
- Activity [5]: Active
- Activity [6]: Active
- AUC(0-t) at 24 h [7]: 24800 ng·h/mL
- Activity [8]: 1.06%
- solubility [9]: 32.3 µg/mL (≈ 76.8 µM)
- Activity [10]: 76.99%
- Tmax [11]: 3.67 h
- Activity [12]: 0.46%
- Activity [13]: 26.1%
- half-life [14]: 8.87 h
- Activity [15]: Active
- Activity [16]: 22.7%
- Activity [17]: Active
- Activity [18]: 1.05%
- Activity [19]: 3.74%
- Activity [20]: Active
- IC50 [21]: 8.42 µM
- viability at 8 µM [22]: 68.9%
- Activity [23]: Active
- Activity [24]: Active
- Activity [25]: Active
- Activity [26]: 0.59%
- Activity [27]: Active
- Tmax [28]: 0.28 h
- Inhibition_index [29]: 10.67
- Activity [30]: Active
- Activity [31]: Active
- viability at 3 µM [32]: 88%
- Activity [33]: 3.27%
- Activity [34]: 11.2%
- Activity [35]: 10.5%
- Activity [36]: Active
